Each block holds one compound with its values, some of them ahead of it.
Key:
[1] = molecular target: Beta-secretase 1 (Homo sapiens) (UniProt P56817); test: Inhibition of BACE1 (unknown origin) in a cell-based assay
Homo sapiens [2] = test: Inhibition of BACE1 in alzheimer's disease patient assessed as reduction of CSF Abeta level at 35 mg/kg; format: functional
Homo sapiens [3] = test: Inhibition of BACE1 in alzheimer's disease patient assessed as reduction of CSF Abeta level at 15 mg/kg; format: functional
Homo sapiens [4] = test: Inhibition of BACE1 in alzheimer's disease patient assessed as reduction of plasma Abeta40 level at 90 mg/kg after 24 hrs; format: functional
[5] = molecular target: Cathepsin D (Homo sapiens) (UniProt P07339); test: Inhibition of human liver Cathepsin D
Chain of Cathepsin D (Homo sapiens) (P07339 65-162 limits assumed): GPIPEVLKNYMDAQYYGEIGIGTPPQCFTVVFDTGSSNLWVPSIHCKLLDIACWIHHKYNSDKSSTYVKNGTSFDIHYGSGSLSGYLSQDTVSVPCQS
Chain of Cathepsin D (Homo sapiens) (P07339 169-412 limits assumed): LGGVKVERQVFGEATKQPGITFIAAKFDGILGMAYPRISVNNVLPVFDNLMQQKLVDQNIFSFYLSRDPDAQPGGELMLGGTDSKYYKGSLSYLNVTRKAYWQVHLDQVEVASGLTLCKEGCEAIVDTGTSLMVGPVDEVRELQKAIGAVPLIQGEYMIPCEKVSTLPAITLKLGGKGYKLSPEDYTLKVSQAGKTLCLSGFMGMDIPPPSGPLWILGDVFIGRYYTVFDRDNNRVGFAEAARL

Brain [6] = test: Drug uptake in mouse brain at 30 mg/kg, po; format: ADME, organism-based; design: dose 30 mg/kg, route oral; settings: in vivo
Brain [7] = test: Drug uptake in mouse brain at 10 mg/kg, po; format: ADME, organism-based; design: dose 10 mg/kg, route oral; settings: in vivo
[8] = molecular target: Beta-secretase 1 (Homo sapiens) (UniProt P56817); test: Inhibition of BACE1 in HEK293 cells; format: cell-based
[9] = Plasma concentration in beagle dog at 5 mg/kg, po after 1 hr; format: ADME, organism-based, Canis lupus familiaris; design: dose 5 mg/kg, route oral
Renin (Homo sapiens) = molecular target: T1, Renin (Homo sapiens) (UniProt P00797); test: Inhibition of recombinant renin (unknown origin)
T1 sequence (whole entry): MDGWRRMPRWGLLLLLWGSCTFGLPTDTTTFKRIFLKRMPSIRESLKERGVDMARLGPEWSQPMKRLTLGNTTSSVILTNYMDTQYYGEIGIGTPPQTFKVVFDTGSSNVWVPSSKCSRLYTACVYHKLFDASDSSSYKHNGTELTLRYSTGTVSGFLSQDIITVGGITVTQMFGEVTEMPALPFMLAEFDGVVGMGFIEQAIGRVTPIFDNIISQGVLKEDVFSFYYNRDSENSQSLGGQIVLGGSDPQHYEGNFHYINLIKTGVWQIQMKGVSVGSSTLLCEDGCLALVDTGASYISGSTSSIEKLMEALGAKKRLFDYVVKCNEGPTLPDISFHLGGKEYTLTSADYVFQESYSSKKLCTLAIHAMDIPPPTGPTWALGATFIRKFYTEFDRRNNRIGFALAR

Brain [10] = test: Drug uptake in mouse brain at 100 mg/kg, po; format: ADME, organism-based; design: dose 100 mg/kg, route oral; settings: in vivo
[11] = molecular target: T2, Beta-secretase 2 (Homo sapiens) (UniProt Q9Y5Z0); test: Inhibition of human BACE2 by mcaFRET assay
T2 sequence (whole entry): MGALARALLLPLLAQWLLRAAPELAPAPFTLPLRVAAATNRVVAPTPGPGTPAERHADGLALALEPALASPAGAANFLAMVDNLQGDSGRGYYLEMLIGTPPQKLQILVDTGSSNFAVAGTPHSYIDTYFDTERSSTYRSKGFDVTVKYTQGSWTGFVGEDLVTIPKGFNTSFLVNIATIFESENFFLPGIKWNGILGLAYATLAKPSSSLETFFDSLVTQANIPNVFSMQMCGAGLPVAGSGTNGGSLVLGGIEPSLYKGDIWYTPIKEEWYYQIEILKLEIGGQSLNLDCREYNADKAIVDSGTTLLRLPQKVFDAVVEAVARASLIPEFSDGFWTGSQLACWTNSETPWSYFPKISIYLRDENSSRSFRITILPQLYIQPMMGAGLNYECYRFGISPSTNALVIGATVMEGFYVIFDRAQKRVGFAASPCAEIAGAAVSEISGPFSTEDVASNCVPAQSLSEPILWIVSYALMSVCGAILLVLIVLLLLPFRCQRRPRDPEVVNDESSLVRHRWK

Homo sapiens [12] = test: Inhibition of BACE1 in alzheimer's disease patient assessed as reduction of plasma Abeta40 level at 90 mg/kg after 7 hrs; format: functional
Canis familiaris [13] = test: Inhibition of BACE1 in beagle dog assessed as reduced CSF Abeta level at 5 mg/kg, po after 3 hrs; format: functional; settings: Canis lupus familiaris
Canis familiaris [14] = test: Inhibition of BACE1 in beagle dog assessed as reduced CSF Abeta level at 5 mg/kg, po after 9 hrs; format: functional; settings: Canis lupus familiaris
Canis familiaris [15] = test: Inhibition of BACE1 in beagle dog assessed as reduced plasma Abeta level at 5 mg/kg, po after 4 to 12 hrs; format: functional; settings: Canis lupus familiaris
[16] = Half life in beagle dog at 5 mg/kg, po; format: ADME, organism-based, Canis lupus familiaris; design: dose 5 mg/kg, route oral; settings: in vivo
[17] = molecular target: Beta-secretase 1 (Homo sapiens) (UniProt P56817); test: Inhibition of human recombinant BACE1 using MBP-C12Swe as substrate by FRET assay
Sus scrofa = species on record: Sus scrofa; test: Inhibition of pig gastric mucosa pepsin
Mus musculus [18] = test: Inhibition of BACE1 in TASTPM mouse assessed as reduced brain Abeta42 at 250 mg/kg, po bid after 5 days; format: functional; settings: 120 h
Mus musculus [19] = test: Inhibition of BACE1 in TASTPM mouse assessed as reduced brain Abeta40 at 250 mg/kg, po bid after 5 days; format: functional; settings: 120 h
[20] = molecular target: T2, Beta-secretase 2 (Homo sapiens); test: Inhibition of BACE2 (unknown origin)

Chain of Beta-secretase 1 (Homo sapiens) (P56817 whole entry): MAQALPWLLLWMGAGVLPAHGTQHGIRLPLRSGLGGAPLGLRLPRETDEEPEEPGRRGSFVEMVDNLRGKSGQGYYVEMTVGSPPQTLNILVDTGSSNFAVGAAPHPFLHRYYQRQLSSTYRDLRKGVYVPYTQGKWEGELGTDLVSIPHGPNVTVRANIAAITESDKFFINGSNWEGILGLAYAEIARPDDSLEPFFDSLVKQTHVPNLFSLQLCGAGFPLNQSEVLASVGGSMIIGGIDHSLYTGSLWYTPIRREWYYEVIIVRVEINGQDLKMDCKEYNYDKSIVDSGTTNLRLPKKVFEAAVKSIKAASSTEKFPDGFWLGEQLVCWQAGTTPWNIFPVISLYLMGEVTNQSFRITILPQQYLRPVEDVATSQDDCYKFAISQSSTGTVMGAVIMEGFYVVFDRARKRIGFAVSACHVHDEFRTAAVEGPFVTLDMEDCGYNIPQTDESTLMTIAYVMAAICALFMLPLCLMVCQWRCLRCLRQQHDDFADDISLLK

Structure (SMILES): NC1=N[C@@]2(c3cc(NC(=O)c4ccc(F)cn4)ccc3F)COC[C@H]2CS1 [LY-2886721]
inhibition in vivo at 35 mg/kg (Homo sapiens [2]): 60%
inhibition in vivo at 15 mg/kg (Homo sapiens [3]): 30%

Structure (SMILES): C[C@@]1(c2cc(-c3cncnc3)c(F)cc2F)CCSC(N)=N1 [LY-2811376]
inhibition in vivo at 90 mg/kg (Homo sapiens [4]): 64%
INH [5]: 15.7 µM
Drug uptake (Brain [6]): 3.35 µg/g
Drug uptake (Brain [7]): 1.46 µg/g
INH [8]: 0.3 µM
concentration at 1 h [9]: 1920 ng/mL
INH (Renin (Homo sapiens)): 39 µM
Drug uptake (Brain [10]): 12.12 µg/g
INH [11]: 2.8 µM
inhibition in vivo at 90 mg/kg (Homo sapiens [12]): 80%
inhibition in vivo at 5 mg/kg (Canis familiaris [13]): 43%
inhibition in vivo at 5 mg/kg (Canis familiaris [14]): 70%
inhibition in vivo at 5 mg/kg (Canis familiaris [15]): 85%
half-life [16]: 6.8 h
INH [17]: 0.24 µM
INH (Sus scrofa): 32.6 µM

Structure (SMILES): C[C@@]1(c2cccc(-c3cncnc3)c2)CCSC(N)=N1
INH [17]: 0.92 µM

Structure (SMILES): CCNc1cc(C(=O)N[C@@H](Cc2ccccc2)[C@H](O)CNCc2cccc(C(F)(F)F)c2)cc(N2CCCCS2(=O)=O)c1
inhibition in vivo at 250 mg/kg (Mus musculus [18]): 23%
inhibition in vivo at 250 mg/kg (Mus musculus [19]): 18%

Further lines, results first:

INH [1]: 0.028 µM
Structure (SMILES): C[C@@H]1N[C@@H]([C@@H](O)[C@H](Cc2ccccc2)NC(=O)c2cc(C(=O)N[C@H](C)c3ccc(F)cc3)cc(N(C)S(C)(=O)=O)c2)C(=O)N1Cc1ccccc1

INH [1]: 0.03 µM
Structure (SMILES): C[C@@H](NC(=O)c1cc(C(=O)N[C@@H](Cc2ccccc2)[C@H](O)[C@@H]2NC(C)(C)N(Cc3ccccc3)C2=O)cc(N(C)S(C)(=O)=O)c1)c1ccc(F)cc1

INH [1]: 18 µM
Structure (SMILES): C[C@@H](NC(=O)c1cc(C(=O)N[C@@H](Cc2ccccc2)[C@H](O)[C@@H]2NC(C)(C)N(C)C2=O)cc(N(C)S(C)(=O)=O)c1)c1ccc(F)cc1

INH [20]: 0.0045 µM
INH [1]: 4 µM
Structure (SMILES): CC(C)C[C@H](NC(=O)[C@@H]1CC(=O)NCCCCCCOC(=O)N[C@@H](C(C)C)C(=O)N1)[C@@H](O)C[C@@H](C)C(=O)N[C@H](C(=O)NCc1ccccc1)C(C)C

INH [17]: 790 µM
Structure (SMILES): Cc1ccc2c(c1)CSC(N)=N2

Source: ChEMBL document CHEMBL2396519, “Structure-based design of β-site APP cleaving enzyme 1 (BACE1) inhibitors for the treatment of Alzheimer's disease” (J Med Chem, 2013)
